The source of these data is article PMC6178348, “Intranasal delivery of a Fas-blocking peptide attenuates Fas-mediated apoptosis in brain ischemia” (Scientific Reports, 2018).

Data set [1] is described as follows: Brain biodistribution of intranasally inoculated A488-labeled peptide in normal and MCAO rats. The data set is classed as in vivo, Sprague–Dawley rats. Conditions: intranasal (POD), MCAO rats; fluorescence imaging. From the text: Figure 3 IN delivered FBP localizes to Fas-expressing brain regions in the MCAO rat model of focal ischemia. (A) Immunohistochemistry for Fas expression in ischemic rat brain after MCAO. Representative images of deparaffinized coronal brain sections from normal or ischemic rats stained with anti-Fas antibody at the designated times post-MCAO are shown. Representative images (upper panel) and cumulative data (lower panel) depicting fluorescence intensities measured in arbitrary pixel values relative to that at the 12 h ‘normal’ rats. Scale bar = 50 µm. The data represent mean ± SD (N = 6 per group). *P < 0.05 at individual time-points, Mann-Whitney U test, ^###P < 0.001; Cumulative data, Two-way ANOVA. […] Representative images (upper panel) and cumulative data (lower panel) depicting fluorescence intensities measured in arbitrary pixel values relative to and normalized based on fluorescence intensities in normal group. […]
For bio-distribution studies, A488-conjugated FBP was intranasally (IN) administered at 500 μg (1.4 mg/kg) in a final volume of 50 μL (25 μL in each nare) using the POD at 12 h post-MCAO and fluorescence analyzed at designated time points in isolated organs using Image Station 4000 mm (Carestream Rochester, NY) or by flow cytometry of single cell suspensions on a FACS Calibur™ (BD Bioscience, San Jose, CA) and analyzed using the Flowjo software. […]

For the next data set, the system named is normal rat brain tissue. As to the kind of experiment: H&E and TUNEL staining of brain sections of normal non-ischemic rats after IN inoculation. The data set is classed as in vivo. Conditions: H&E and TUNEL stained sections, N = 6 per group. As to the method: Brain pathology was analyzed by incubating 2 mm thick brain slices in 2% 2,3,5-triphenyltetrazolium chloride (TTC staining, Sigma) and measuring the infarct volume after fixation using Image J software as previously described. Paraffin-embedded brain sections were also subjected to H&E staining and immunohistochemistry after with an antibody to rat Fas (ab82419, Abcam). Apoptosis in de-paraffinized, rehydrated brain sections was analyzed by TUNEL staining using the In Situ Cell Death Detection Kit (Roche, Germany) in accordance with the manufacturer’s instructions.
(A) Regional cerebral blood flow (rCBF) in rat’s subject to MCAO. The cerebral blood flow was measured during ligation of CCA, occlusion of MCA and after reperfusion (N=6 per group) and a 9 fold reduction was considered as a confirmation of ischemic stroke injury. (B) Bio-distribution of IN inoculated ctr-FBP-A488 or FBP-A488 at the indicated time points in normal non-ischemic rats that constitute a control group (N=3 per group). Mock treated animals were inoculated with PBS. (C) Representative hematoxylin and eosin (H&E) (upper panel) and TUNEL (lower panel) stained paraffin embedded sections from normal rat inoculated with PBS (Mock), ctr-FBP or FBP […]
change in tissue morphology and toxicity. Scale bare represents 100µm. ctr-FBP-A488- Alexa488 labeled control peptide, FBP-A488- Alexa488 labeled Fas-blocking peptide.

Peptide text beside a SMILES is read from it.

As for `CC(C)[C@H](NC(=O)[C@@H](NC(=O)[C@H](CO)NC(=O)[C@H](CC(N)=O)NC(=O)[C@H](CS)NC(=O)[C@@H](N)Cc1ccc(O)cc1)[C@@H](C)O)C(=O)N[C@@H](CS)C(=O)N[C@@H](Cc1ccc(O)cc1)C(=O)O` [ctr-FBP] (H-YCNSTVCY-OH), the “Clearance of peptide from brain after IN delivery” value in data set [1] is recorded as “cleared within a few hours of treatment”. Moreover, in the data set with normal rat brain tissue, the “Change in brain tissue morphology and toxicity in normal rats” value is “did not shows any change in tissue morphology and toxicity”.
In the case of `N[C@@H](Cc1ccc(O)cc1)C(=O)N[C@@H](CS)C(=O)N[C@@H](CC(=O)O)C(=O)N[C@@H](CCC(=O)O)C(=O)N[C@@H](Cc1c[nH]cn1)C(=O)N[C@@H](Cc1ccccc1)C(=O)N[C@@H](CS)C(=O)N[C@@H](Cc1ccc(O)cc1)C(=O)O` [FBP] (H-YCDEHFCY-OH), the “Change in brain tissue morphology and toxicity in normal rats” value with normal rat brain tissue was “did not shows any change in tissue morphology and toxicity”.
